# Key:
# [1] = tested on: Influenza A virus; test: Cytotoxicity against A/WSN/33 strain (an H1N1 subtype) influenza virus in the plaque reduction assay; assay type: functional
# [2] = Inhibitory activity against A/WSN/33 strain (an H1N1 subtype) influenza virus was measured by cell protection assay in MDBK cells; assay type: functional, cell-based, Bos taurus
# [3] = Inhibitory activity against A/WSN/33 strain (an H1N1 subtype) influenza virus was measured by cell protection assay in MDBK cells; Not active; assay type: functional, cell-based, Bos taurus
# [4] = Inhibitory activity against A/WSN/33 strain (an H1N1 subtype) influenza virus was measured by cell protection assay in MDBK cells; Value ranges from 0.2-0.3 ug/mL; assay type: functional, cell-based, Bos taurus
Structure (SMILES),CC50 [1] [µg/mL],EC50 [2] [µg/mL],EC50 [3],EC50 [4] [µg/mL]
C[C@@H]1CCC[C@@H]2C[C@@H](NC(=O)c3cc(Cl)c(N)cc3O)CCN21,> 100,1,,
C[C@@H]1CCC[C@@H]2C[C@@H](NC(=O)c3cc(C(=O)c4ccccc4)ccc3O)CCN21,> 100,,Not Active,
C[C@@H]1CCC[C@@H]2C[C@@H](NC(=O)c3c(O)ccc4ccccc34)CCN21,> 100,,Not Active,
C[C@@H]1CCC[C@@H]2C[C@@H](NC(=O)c3ccc(N)cc3O)CCN21,> 100,,Not Active,
C[C@@H]1CCC[C@@H]2C[C@@H](NC(=O)c3cc(O)ccc3O)CCN21,50,,Not Active,
C=Cc1ccc(O)c(C(=O)N[C@H]2CCN3[C@H](CCC[C@H]3C)C2)c1,> 100,2,,
C[C@@H]1CCC[C@@H]2C[C@@H](NC(=O)c3cc(N=[N+]=[N-])ccc3O)CCN21,> 100,0.5,,
Cc1cccc(C(=O)N[C@H]2CCN3[C@H](CCC[C@H]3C)C2)c1O,> 100,8,,
C[C@@H]1CCC[C@@H]2C[C@@H](NC(=O)c3cc(Cl)c(N=[N+]=[N-])cc3O)CCN21,,,Not Active,
C[C@@H]1CCC[C@@H]2C[C@@H](NC(=O)c3cc4ccccc4cc3O)CCN21,> 100,,Not Active,
COc1cc(N)c(Cl)cc1C(=O)N[C@H]1CCN2[C@H](CCC[C@H]2C)C1,> 100,,Not Active,
C[C@@H]1CCC[C@@H]2C[C@@H](NC(=O)c3ccccc3N)CCN21,> 100,5,,
C[C@@H]1CCC[C@@H]2C[C@@H](NC(=O)c3cc(Br)ccc3O)CCN21,> 100,0.8,,
C[C@@H]1CCC[C@@H]2C[C@@H](NC(=O)c3cc(Cl)cc(Cl)c3O)CCN21,> 100,10,,
C[C@@H]1CCC[C@@H]2C[C@@H](NC(=O)c3cccc(O)c3O)CCN21,10,,Not Active,
Cc1ccc(C(=O)N[C@H]2CCN3[C@H](CCC[C@H]3C)C2)c(O)c1,> 100,4,,
C[C@@H]1CCC[C@@H]2C[C@@H](NC(=O)c3c(O)cccc3F)CCN21,> 100,10,,
C[C@@H]1CCC[C@@H]2C[C@@H](NC(=O)c3cc(Cl)ccc3O)CCN21,> 100,0.8,,
C[C@@H]1CCC[C@@H]2C[C@@H](NC(=O)c3cc(I)ccc3O)CCN21,100,1,,
C[C@@H]1CCC[C@@H]2C[C@@H](NC(=O)c3cc(F)ccc3O)CCN21,> 100,0.4,,
C[C@@H]1CCC[C@@H]2C[C@@H](NC(=O)c3cc(C(F)(F)F)ccc3O)CCN21,> 100,,Not Active,
C[C@@H]1CCC[C@@H]2C[C@@H](NC(=O)c3ccccc3O)CCN21,> 100,1.6,,
C[C@@H]1CCC[C@@H]2C[C@@H](NC(=O)c3cc(-c4ccccc4)ccc3O)CCN21,30,,Not Active,
C[C@@H]1CCC[C@@H]2C[C@@H](NC(=O)c3cc4c(cc3O)C(C)(C)CCC4(C)C)CCN21,8,,Not Active,
C[C@@H]1CCC[C@@H]2C[C@@H](NC(=O)c3cc(C(C)(C)C)ccc3O)CCN21,50,,Not Active,
COc1ccc(O)c(C(=O)N[C@H]2CCN3[C@H](CCC[C@H]3C)C2)c1,100,0.6,,
C[C@@H]1CCC[C@@H]2C[C@@H](NC(=O)c3ccc(N)c(Cl)c3)CCN21,,,Not Active,
Cc1ccc(O)c(C(=O)N[C@H]2CCN3[C@H](CCC[C@H]3C)C2)c1,100,,,0.2
CC(=O)Nc1ccccc1C(=O)N[C@H]1CCN2[C@H](CCC[C@H]2C)C1,> 100,,Not Active,

# Source: ChEMBL document CHEMBL1131816, “Novel quinolizidine salicylamide influenza fusion inhibitors” (Bioorg Med Chem Lett, 1999)
